Reference: publication PMC7550284, “The functional cooperation of 5-HT1A and mGlu4R in HEK-293 cell line” (Pharmacological Reports, 2020)
Values belong to the molecule of their own block, whether it stands above or below them.

Legend:
5-HT1A receptor [1] = biological target: T1, 5-HT1A receptor (Homo sapiens, UniProt P08908); assay: Forskolin-induced cAMP accumulation in T-REx 293 cells expressing both 5-HT1A-HALO and mGlu4R-SNAP, 5-HT1A agonist response; assay type: cell-based; conditions: +Tet
T1 construct: expressed in transfected cells
T1 sequence (P08908 1-422): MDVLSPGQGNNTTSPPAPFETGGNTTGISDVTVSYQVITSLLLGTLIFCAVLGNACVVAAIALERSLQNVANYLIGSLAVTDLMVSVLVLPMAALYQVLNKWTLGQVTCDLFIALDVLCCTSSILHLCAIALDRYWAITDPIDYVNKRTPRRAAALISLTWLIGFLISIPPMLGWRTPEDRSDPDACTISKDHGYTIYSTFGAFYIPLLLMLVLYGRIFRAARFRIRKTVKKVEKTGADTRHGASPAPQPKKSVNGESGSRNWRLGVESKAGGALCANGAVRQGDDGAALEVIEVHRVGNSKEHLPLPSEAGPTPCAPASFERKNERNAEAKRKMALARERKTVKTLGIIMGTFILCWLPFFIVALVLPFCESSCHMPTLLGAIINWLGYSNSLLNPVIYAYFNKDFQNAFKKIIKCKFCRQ
Method: (§1) The cell line was maintained in DMEM medium supplemented with 10% FBS (tetracycline free), 2 mM Glutamax I (Lonza,), 100 µg/mL Zeocin and 10 µg/mL blasticidin (Invitrogen). T-REx 293 cells were treated with a mixture of plasmids (0.1 µg pTet-SNAP-GRM4 and 0.9 µg pOG44) and GeneJuice transfection reagent according to the manufacturer’s instructions (Novagen). After 48 h, selection for the stably integrated plasmid with 100 µg/mL hygromycin B (Invitrogen) began. In parallel experiments, the HALO-5-HT1A plasmid was introduced into T-REx 293 cells or cells with the inducible expression of SNAP-GRM4 to generate a cell line that expressed both receptors. In the double expression system (as well as in other experiments), 5-HT1A was stably expressed, and mGlu4R expression was induced by tetracycline treatment (+ Tet; 0.75 µg/mL) (Fig. S3). One additional cell line was generated by cloning the 5-HT1A insert (BamHI/XhoI) into the pSNAPf vector ([…]).
(§2) Each experiment was performed three times (n = 3), and each data point was in triplicate. The curves for the data shown were fitted to a three-parameter logistic equation, allowing for the determination of IC50 values and Emax. For comparison of IC50 between the curves, t test was applied. The ONE way ANOVA and Tukey’s post hoc test were used for in vitro receptor interaction assays statistics.

mGlu4R [2] = assay: Forskolin-induced cAMP accumulation in T-REx 293 cells expressing both 5-HT1A-HALO and mGlu4R-SNAP, L-glutamate response; assay type: cell-based, human; conditions: without tetracycline induction (−Tet); curve parameters impossible to determine
Method: as §1, §2

5-HT1A receptor [3] = biological target: T1, 5-HT1A receptor; assay: Forskolin-induced cAMP accumulation (HTRF) in T-REx-293-h5-HT1A-SNAP cells; assay type: cell-based; conditions: cAMP assay, Fig. 1b
Method: as §1, §2

mGlu4R [4] = biological target: T2, mGlu4R (Homo sapiens, UniProt Q14833); assay: Forskolin-induced cAMP accumulation in T-REx 293 cells expressing both 5-HT1A-HALO and mGlu4R-SNAP, L-glutamate response; assay type: cell-based; conditions: SSZ 100 μM; +Tet
T2 construct: expressed in transfected cells
Method: as §1, §2

[5] = biological target: T3, hmGlu4 receptor homodimer (Homo sapiens, UniProt Q14833); assay: HTRF-FRET receptor interaction assay, mGlu4-SNAP homodimers (Snap-Tb/Snap-Green); assay type: cell-based; conditions: in presence of L-glutamate; VU0155041 10 μM, LY341495 100 µM
T3 construct: expressed in transfected cells
T3 sequence (Q14833 33-912): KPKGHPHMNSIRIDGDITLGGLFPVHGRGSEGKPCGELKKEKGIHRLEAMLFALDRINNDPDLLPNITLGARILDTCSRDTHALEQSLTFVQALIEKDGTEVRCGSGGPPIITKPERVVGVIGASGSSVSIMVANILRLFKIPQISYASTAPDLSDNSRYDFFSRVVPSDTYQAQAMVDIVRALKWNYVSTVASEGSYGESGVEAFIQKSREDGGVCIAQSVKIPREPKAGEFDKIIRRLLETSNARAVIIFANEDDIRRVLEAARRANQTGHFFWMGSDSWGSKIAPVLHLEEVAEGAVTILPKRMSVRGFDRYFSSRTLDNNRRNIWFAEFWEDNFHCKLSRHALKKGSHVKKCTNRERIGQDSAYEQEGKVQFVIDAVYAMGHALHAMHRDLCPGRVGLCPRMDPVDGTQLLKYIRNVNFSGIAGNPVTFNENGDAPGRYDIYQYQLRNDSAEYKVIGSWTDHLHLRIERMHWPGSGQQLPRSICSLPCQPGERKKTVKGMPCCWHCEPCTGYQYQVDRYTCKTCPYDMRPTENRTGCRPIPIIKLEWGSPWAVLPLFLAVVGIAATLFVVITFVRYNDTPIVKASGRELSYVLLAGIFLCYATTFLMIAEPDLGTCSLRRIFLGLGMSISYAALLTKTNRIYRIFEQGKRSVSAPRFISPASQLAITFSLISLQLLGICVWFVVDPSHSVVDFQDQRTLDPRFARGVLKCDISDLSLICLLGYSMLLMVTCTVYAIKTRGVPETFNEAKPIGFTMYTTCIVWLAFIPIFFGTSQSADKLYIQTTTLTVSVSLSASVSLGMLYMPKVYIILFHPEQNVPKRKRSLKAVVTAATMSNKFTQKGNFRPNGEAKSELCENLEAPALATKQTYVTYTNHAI

T2 sequence (Q14833 33-912): as above

SMILES: CCCN(CCC)[C@@H]1CCc2cccc(O)c2C1 [(R)-(+)-8-OH DPAT, (R)-(+)-8-hydroxy-DPAT]
- Effect on forskolin-stimulated cAMP accumulation after induction of mGlu4 receptor expression (5-HT1A receptor [1]): abolished

SMILES: N[C@@H](CCC(=O)O)C(=O)O [L-glutamate]
- Effect on forskolin-induced cAMP accumulation without induction of mGlu4 receptor expression (mGlu4R [2]): not effective

- Effect of antagonist on the agonist (R)-(+)-8-OH DPAT Emax (5-HT1A receptor [3]): totally abolished
SMILES: COc1ccccc1N1CCN(CC(C(=O)NC(C)(C)C)c2ccccc2)CC1 (stereo not drawn) [WAY100135]

- Effect of sulfasalazine treatment on 5-HT1A activity in presence of mGlu4 receptors (5-HT1A receptor [1]; SSZ 100 μM, versus cells without SSZ): significantly enhanced
SMILES: O=C(O)c1cc(/N=N/c2ccc(S(=O)(=O)Nc3ccccn3)cc2)ccc1O [Sulfasalazine, sulfasalazine]
- Effect of sulfasalazine treatment on the dose–response curve of glutamate (mGlu4R [4]): shifted the dose–response curve of glutamate to the left

SMILES: O=C(Nc1cc(Cl)cc(Cl)c1)[C@H]1CCCC[C@H]1C(=O)O [VU0155041]
- Effect on FRET signal / interaction between mGluR4 monomers [5]: enhanced interaction
